Legend:
IP receptor = molecular target: T1, IP receptor (Homo sapiens, UniProt P43119); experiment: Iloprost-induced cAMP production assay in HEL cells (Assay 2); assay type: cell-based; conditions: IP receptor antagonist assay, compounds of about 40 to 90% purity, read-out: Activity grade assay 2
T1 construct: HEL cells were collected with centrifugation and washed with cAMP assay buffer; endogenous in cells; host or cells: HEL 92.1.7 (human erythroleukemia, ATCC)
Description: [Iloprost-Induced cAMP Production Assay in HEL Cells] (Assay 2)
HEL cells were collected with centrifugation and washed with cAMP assay buffer (CAB: Hank's balanced salt solution, 17 mM Hepes, 0.1% bovine serum albumin, 1 mM IBMX, 0.4% DMSO, and 1 mM L-ascorbic acid sodium salt (pH 7.4)). Cells were suspended at the density of 2.5×10^5 cells/ml in CAB, and twenty thousand cells in 80 μl aliquot of cell suspension were put in a well of 96 well plate (Falcon). Then, 10 μl of compound solution diluted with 1% DMSO in CAB or buffer alone was added. The plate was incubated at 37° C. for 30 min. Then, another 10 μl containing 100 nM iloprost in CAB or buffer alone was added and further incubated at 37° C. for 30 min. cAMP content in the well was measured by a cAMP ELISA kit (Applied Biosystems).

T1 sequence (P43119 whole entry): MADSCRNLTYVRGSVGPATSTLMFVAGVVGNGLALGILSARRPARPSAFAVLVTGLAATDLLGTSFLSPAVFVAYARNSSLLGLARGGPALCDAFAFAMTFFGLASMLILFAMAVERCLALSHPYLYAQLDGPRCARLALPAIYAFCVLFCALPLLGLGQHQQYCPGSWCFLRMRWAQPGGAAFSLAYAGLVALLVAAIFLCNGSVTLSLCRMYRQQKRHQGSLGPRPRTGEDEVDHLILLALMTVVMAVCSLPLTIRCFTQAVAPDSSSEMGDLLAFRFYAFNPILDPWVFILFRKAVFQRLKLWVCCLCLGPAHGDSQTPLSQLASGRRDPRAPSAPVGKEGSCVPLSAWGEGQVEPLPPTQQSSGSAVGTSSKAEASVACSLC

melting point [°C]	IC50 (IP receptor) [nM]	Structure (SMILES)
146	< 100	O=C(C#Cc1ccc(COc2ccccc2)cc1)N[C@@H](Cc1ccccc1)C(=O)O [Example 3, N-(4-Phenoxymethylphenylpropioloyl)phenylalanine]
205	< 100	O=C(/C=C/c1ccc(COc2ccccc2)cc1)NC(Cc1ccccc1)C(=O)O (centres unmarked) [Example 1, N-(4-phenoxymethylcinnamoyl)phenylalanine]
173 to 174	< 100	O=C(CCc1ccc(COc2ccccc2)cc1)N[C@@H](Cc1ccccc1)C(=O)O [Example 2, N-[3-(4-Phenoxymethylphenyl)propionyl]phenylalanine]
220	< 100	O=C(/C=C/c1ccc(OCc2ccccc2)cc1)NC(Cc1ccccc1)C(=O)O (centres unmarked) [Example 4, N-(4-Benzyloxycinnamoyl)phenylalanine]

— patent US20060135613A1, “Carboxamides derivatives” (Bayer Healthcare AG, priority 2002, published 2006)
